Results taken from patent US20150011528A1, “PHENYLIMIDE-CONTAINING BENZOTHIAZOLE DERIVATIVE OF ITS SALT AND PHARMACEUTICAL COMPOSITION COMPRISING THE SAME” (YUHAN CORPORATION, priority 2011, published 2015).

Assays:
Format in all cases: cell-based
[1] = target: T1, binding between KRS and AIMP3 (Homo sapiens, UniProt Q15046); experiment: Yeast Two Hybrid specificity test, LexA-KRS / B42-AIMP3 co-transformed yeast cells; conditions: 1 μL of 20 mM DMSO solution per 200 μL culture; 30° C., 6 days; absorbance 540 nm; non-treated control = 100%
T1 construct: expressed in transfected cells; host or cells: yeast cells (co-transformed)
Protocol: (§1) And also, specificity of the inhibitory activity was evaluated, using the yeast cells cotransformed with the LexA-KRS vector and the B42-AIMP2 vector; and the yeast cells co-transformed with the LexA-KRS vector and the B42-AIMP3 vector, which were respectively prepared according to WO2011/056021. The co-transformation was carried out using the Yeastmaker yeast transformation system2 kit (Clontech), according to the manufacturer's instruction. […] The cultured yeast cells were diluted with the said galactose medium, until the absorbance at 540 nm attains to about 0.15 to 0.2. The diluted culture (200 μL), containing the yeast cells, was added to each well of a 96-well plate. Each test compound was dissolved in dimethyl sulfoxide at a concentration of 20 mM and then the resulting solutions (1 μL) were added to each well. The plate was cultured at 30° C. for 6 days and then the absorbance of each well was measured at 540 nm. The respective yeast cell proliferation rates (%) in the treated samples were calculated in comparison with those of the non-treated control (100%) and the results thereof are shown in Table 1 below.

[2] = target: T2, binding between KRS and AIMP2 (Homo sapiens, UniProt Q15046); experiment: Yeast Two Hybrid specificity test, LexA-KRS / B42-AIMP2 co-transformed yeast cells; conditions: 1 μL of 20 mM DMSO solution per 200 μL culture; 30° C., 6 days; absorbance 540 nm; non-treated control = 100%
T2 construct: expressed in transfected cells; host or cells: yeast cells (co-transformed)
Protocol: as §1

[3] = target: T3, interaction between the KRS protein and the laminin receptor (LR) (Homo sapiens, UniProt Q15046); experiment: Yeast Two Hybrid inhibition of the interaction between the KRS protein and the laminin receptor (LR); conditions: 1 μL of 20 mM DMSO solution per 200 μL culture; 30° C., 6 days; absorbance 540 nm; non-treated control = 100%
T3 construct: expressed in transfected cells; host or cells: yeast EGY/SH cells
Protocol: The inhibitory activity against the interaction between the KRS protein and the laminin receptor (LR) was evaluated according to the Yeast Two Hybrid method described in WO2011/056021. According to the disclosures of WO2011/056021, we prepared a vector obtained by cloning the KRS gene in the LexA vector (Clontech) and a vector obtained by cloning the LR gene in the B42 vector (Clontech). The yeast cells, i.e., EGY/SH cells were co-transformed with the LexA-KRS vector and the B42-LR vector. The co-transformation was carried out using the Yeastmaker yeast transformation system2 kit (Clontech), according to the manufacturer's instruction. […] The cultured yeast cells were diluted with the said galactose medium, until the absorbance at 540 nm attains to about 0.15 to 0.2. The diluted culture (200 μL), containing the yeast cells, was added to each well of a 96-well plate. Each test compound was dissolved in dimethyl sulfoxide at a concentration of 20 mM and then the resulting solutions (1 μL) were added to each well. The plate was cultured at 30° C. for 6 days and then the absorbance of the each well was measured at 540 nm.
as §1
When KRS is bound to LR, the trans-activation domain is come close to the DNA-binding domain and the genes for synthesizing essential amino acids are expressed, which leads to normal growth of the transformed yeasts, thereby increasing the absorbance.

A549 cells = experiment: Cell Migration Assay (transwell, laminin); conditions: Homo sapiens, laminin 10 μg/mL in lower well, test compounds 0.39˜100 μM, 6 hours at 37° C.
Protocol: Cell migration was measured with a 24-well transwell having a polycarbonate membrane (8.0 μm pore size, Costar) at the bottom of the upper chamber. Each lower well was treated with laminin (10 μg/mL) and test compounds (0.39˜100 μM) along with a serum-free RPMI1640 medium. A549 cells (Korean Cell Line Bank) were suspended in a serum-free RPMI1640 medium at a concentration of 1×10^6 cells/mL and then the test compounds were added thereto at the indicated concentrations. Each resulting solution (100 μL) was added to the upper chamber. The cells were cultured at 37° C. for 6 hours in a CO2 incubator. The upper chamber was taken out and then the cells were fixed with PBS containing 70% methyl alcohol for 10 minutes, followed by washing with PBS twice. The cells were stained with hematoxylin (Sigma) for 10 minutes and then washed with distilled water. The non-migrated cells were removed from the upper portion of the polycarbonate membrane with a cotton swab. The membranes were excised and separated from the chamber, and then mounted to a slide using a gel mount reagent (Biomeda, USA). The migrated cells (attached to the lower face of the membrane) were counted at three randomly selected sites under a microscope (×20). The cell counting was performed with the Image J program. From the counted cell numbers, each IC50 value was calculated by non-linear regression curve fit using the “GraphPad Prism” program.
The cells are pulled by laminin residing in the lower chamber and then passed through the polycarbonate membrane, so as to attach to the lower face of the membrane.

T1 sequence (Q15046 whole entry): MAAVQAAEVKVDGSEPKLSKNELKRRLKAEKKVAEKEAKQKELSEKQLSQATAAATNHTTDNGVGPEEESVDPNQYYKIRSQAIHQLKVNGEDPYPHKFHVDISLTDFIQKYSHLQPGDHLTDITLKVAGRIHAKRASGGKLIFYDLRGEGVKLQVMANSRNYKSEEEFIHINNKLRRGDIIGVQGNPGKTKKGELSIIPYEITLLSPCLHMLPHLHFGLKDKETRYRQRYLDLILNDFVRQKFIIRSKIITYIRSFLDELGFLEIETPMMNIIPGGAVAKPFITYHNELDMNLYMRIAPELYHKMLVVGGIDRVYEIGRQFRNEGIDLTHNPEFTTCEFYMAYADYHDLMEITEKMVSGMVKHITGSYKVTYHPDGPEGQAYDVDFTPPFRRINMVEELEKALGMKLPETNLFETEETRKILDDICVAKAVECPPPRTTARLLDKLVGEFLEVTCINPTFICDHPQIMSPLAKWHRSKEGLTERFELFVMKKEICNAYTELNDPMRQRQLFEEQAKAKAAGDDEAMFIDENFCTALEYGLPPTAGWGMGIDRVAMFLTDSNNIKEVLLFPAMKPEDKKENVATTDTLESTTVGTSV
T2 sequence (Q15046 whole entry): as above
T3 sequence (Q15046 whole entry): as above

| SMILES | Yeast cell proliferation rates KRS-AIMP3 (%) [1] | Yeast cell proliferation rates KRS-AIMP2 (%) [2] | Yeast cell proliferation rates KRS-LR (%) [3] | IC50 (A549 cells) |
| --- | --- | --- | --- | --- |
| CC(C(=O)O)n1c(=NC(=O)c2cccc(C(F)(F)F)c2)sc2c(F)cc(F)cc21 (stereo not shown) [Example 458, 2-(5,7-difluoro-2-((3-(trifluoromethyl)benzoyl)imino)benzo[d]thiazol-3(2H)-yl)propionic acid] | 100.0% | 96.4% | 30.8% | 61 µM |
| CC(C(=O)O)n1c(=NC(=O)c2cccc(C(F)(F)F)c2)sc2ccc(F)cc21 (stereo not shown) [Example 355, 2-(5-fluoro-2-((3-(trifluoromethyl)benzoyl)imino)benzo[d]thiazol-3(2H)-yl)propionic acid] | 104.4% | 97.2% | 22.1% |  |
| CC(C(=O)O)n1c(=NC(=O)c2cccc(Cl)c2)sc2c(F)c(F)ccc21 (stereo not shown) [Example 337, 2-(2-((3-chlorobenzoyl)imino)-6,7-difluorobenzo[d]thiazol-3(2H)-yl)propionic acid] | 100.3% | 92.5% | 12.3% |  |
| CCC(C(=O)O)n1c(=NC(=O)c2ccc(C)cc2)sc2cccc(OC)c21 (stereo not shown) [Example 8, 2-{4-methoxy-2-[(4-methylbenzoyl)imino]benzo[d]thiazol-3(2H)-yl}butanoic acid] | 84.1% | 84.6% | 17.4% |  |
| CC(C(=O)O)n1c(=NC(=O)c2cccc(C(F)(F)F)c2)sc2ccc(Cl)cc21 (stereo not shown) [Example 359, 2-(5-chloro-2-((3-(trifluoromethyl)benzoyl)imino)benzo[d]thiazol-3(2H)-yl)propionic acid] | 107.0% | 101.6% | 21.9% |  |
| CC(C(=O)O)n1c(=NC(=O)c2ccc(F)c(F)c2)sc2cc(F)c(F)cc21 (stereo not shown) [Example 463, 2-(2-((3,4-difluorobenzoyl)imino)-5,6-difluorobenzo[d]thiazol-3(2H)-yl)propionic acid] | 93.2% | 96.7% | 34.3% |  |
| CCC(C(=O)O)n1c(=NC(=O)c2ccc(OC)cc2)sc2c(F)cccc21 (stereo not shown) [Example 533] | 98.3% | 94.8% | 39.0% |  |
| CCC(C(=O)O)n1c(=NC(=O)c2ccc(C)cc2)sc2c(C)cccc21 (stereo not shown) [Example 344, 2-(7-methyl-2-((4-methylbenzoyl)imino)benzo[d]thiazol-3(2H)-yl)butanoic acid] | 102.8% | 99.0% | 11.7% |  |
| Cc1cccc2c1sc(=NC(=O)c1cccc(Cl)c1)n2C(C)C(=O)O (stereo not shown) [Example 353, 2-(2-((3-chlorobenzoyl)imino)-7-methylbenzo[d]thiazol-3(2H)-yl)propionic acid] | 99.5% | 89.4% | 28.2% |  |
| CCOc1ccc2c(c1)sc(=NC(=O)c1ccc(C)cc1)n2C(CC)C(=O)O (stereo not shown) [Example 7, 2-{6-ethoxy-2-[(4-methylbenzoyl)imino]benzo[d]thiazol-3(2H)-yl}butanoic acid] | 100.1% | 106.4% | 36.9% |  |
| CCOc1ccc2c(c1)sc(=NC(=O)c1ccc(F)cc1)n2C(CC)C(=O)O (stereo not shown) [Example 476, 2-(6-ethoxy-2-((4-fluorobenzoyl)imino)benzo[d]thiazol-3(2H)-yl)butanoic acid] | 86.1% | 91.0% | 29.6% |  |
| CCC(C(=O)O)n1c(=NC(=O)c2ccc(C)cc2)sc2c(F)c(F)ccc21 (stereo not shown) [Example 335, 2-(6,7-difluoro-2-((4-methylbenzoyl)imino)benzo[d]thiazol-3(2H)-yl)butanoic acid] | 105.3% | 101.6% | 10.8% |  |
| CCC(C(=O)O)n1c(=NC(=O)c2cccc(F)c2)sc2c(F)c(F)ccc21 (stereo not shown) [Example 582, 2-(6,7-difluoro-2-((3-fluorobenzoyl)imino)benzo[d]thiazol-3(2H)-yl)butanoic acid] | 93.0% | 99.0% | 49.3% |  |
| CCC(C(=O)O)n1c(=NC(=O)c2ccc(OC)cc2)sc2cc(OC(F)(F)F)ccc21 (stereo not shown) [Example 507] | 99.0% | 99.3% | 45.9% |  |
| CCC(C(=O)O)n1c(=NC(=O)c2cccc(OC)c2)sc2c(F)cccc21 (stereo not shown) [Example 532] | 97.3% | 98.6% | 43.7% |  |
| CCC(C(=O)O)n1c(=NC(=O)c2cccc(Cl)c2)sc2c(C)cccc21 (stereo not shown) [Example 354, 2-(2-((3-chlorobenzoyl)imino)-7-methylbenzo[d]thiazol-3(2H)-yl)butanoic acid] | 106.4% | 103.0% | 30.2% |  |
| CCC(C(=O)O)n1c(=NC(=O)c2ccc(C)cc2)sc2cc3c(cc21)OCO3 (stereo not shown) [Example 237, 2-(6-((4-methylbenzoyl)imino)-[1,3]dioxolo[4′,5′:4,5]benzo[1,2-d]thiazol-7(6H)-yl)butanoic acid] | 114.8% | 99.0% | 34.1% |  |
| CC(C(=O)O)n1c(=NC(=O)c2cccc(Cl)c2)sc2c(F)c(F)c(F)cc21 (stereo not shown) [Example 416, 2-(2-((3-chlorobenzoyl)imino)-5,6,7-trifluorobenzo[d]thiazol-3(2H)-yl)propionic acid] | 99.3% | 99.6% | 24.7% |  |
| Cc1ccc(C(=O)N=c2sc3ccc(F)cc3n2C(C)C(=O)O)cc1 (stereo not shown) [Example 91, 2-[5-fluoro-2-(4-methylbenzoylimino)benzo[d]thiazol-3(2H)-yl]propionic acid] | 98.5% | 116.6% | 27.8% |  |
